*1 amine or outer side, *2 acyl side, *3 side chain or, on linkers, in order; H or OH if unused. Where a SMILES comes first, the peptide text is derived from it. Bridges are numbered along the chain shown (N, C = ends). Where no end group is shown, it is not given here. Side-chain parts run from the residue outwards. [ ]: non-standard residue; d: D form. The star is where a group is joined. PEG 40 kDa = PEG (40 kDa) covalently attached to Cys; γGlu = O=C(O)[C@H](CCC(=O)[*:2])N[*:1]; Palmitoyl = CCCCCCCCCCCCCCCC(=O)*; Aib = CC(C)(N)C(=O)O
Key:
[1] = Body weight of mice after peptide injection; conditions: DIO mice; for total change in body weight (weight loss, decrease): Example 41, subcutaneous daily for 7 days, 10 nmol/kg, Day 7
[2] = test system: glucagon receptor, GLP-1 receptor or GIP receptor; assay: Agonist profile across receptors assigned from the cAMP reporter assay data; format: cell-based; conditions: assigned from the in vitro EC50 data of Tables 1-4
GIP receptor = molecular target: T1, GIP receptor (Homo sapiens, UniProt P48546); assay: cAMP synthesis functional assay (firefly luciferase reporter in HEK293 cells), GIP receptor; format: cell-based; conditions: for % Relative activity at the Receptor for GIP: Table 8
T1 construct: expressed in transfected cells; host or cells: HEK293
T1 sequence (P48546 22-466): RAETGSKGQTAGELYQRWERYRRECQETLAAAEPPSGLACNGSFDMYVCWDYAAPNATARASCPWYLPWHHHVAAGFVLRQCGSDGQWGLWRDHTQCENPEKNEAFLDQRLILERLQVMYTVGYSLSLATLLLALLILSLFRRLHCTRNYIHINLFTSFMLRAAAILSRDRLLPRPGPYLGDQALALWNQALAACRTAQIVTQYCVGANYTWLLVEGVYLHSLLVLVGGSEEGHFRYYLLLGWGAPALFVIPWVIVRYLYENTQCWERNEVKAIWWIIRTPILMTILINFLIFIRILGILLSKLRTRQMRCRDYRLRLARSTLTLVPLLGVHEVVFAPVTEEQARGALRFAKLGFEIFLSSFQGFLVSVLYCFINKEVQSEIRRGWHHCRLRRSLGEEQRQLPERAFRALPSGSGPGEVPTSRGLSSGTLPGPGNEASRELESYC

glucagon receptor = molecular target: T2, glucagon receptor (Homo sapiens, UniProt P47871); assay: cAMP synthesis functional assay (firefly luciferase reporter in HEK293 cells), glucagon receptor; format: cell-based; conditions: for % Relative activity at the Receptor for Glucagon: Table 8
T2 construct: expressed in transfected cells; host or cells: HEK293
T2 sequence (P47871 26-477): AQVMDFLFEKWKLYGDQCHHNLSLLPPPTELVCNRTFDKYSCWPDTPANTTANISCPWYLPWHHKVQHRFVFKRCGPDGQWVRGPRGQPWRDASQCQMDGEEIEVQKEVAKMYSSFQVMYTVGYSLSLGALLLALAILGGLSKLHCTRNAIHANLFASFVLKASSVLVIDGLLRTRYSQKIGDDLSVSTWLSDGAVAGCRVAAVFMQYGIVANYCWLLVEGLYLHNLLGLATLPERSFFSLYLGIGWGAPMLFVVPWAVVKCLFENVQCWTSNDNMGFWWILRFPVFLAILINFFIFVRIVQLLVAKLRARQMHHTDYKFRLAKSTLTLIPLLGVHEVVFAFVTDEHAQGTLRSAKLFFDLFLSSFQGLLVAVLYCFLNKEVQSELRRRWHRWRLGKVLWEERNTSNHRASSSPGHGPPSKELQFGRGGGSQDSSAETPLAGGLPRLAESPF

GLP-1 receptor = molecular target: T3, GLP-1 receptor (Homo sapiens, UniProt P43220); assay: cAMP synthesis functional assay (firefly luciferase reporter in HEK293 cells), GLP-1 receptor; format: cell-based; conditions: for % Relative activity at the Receptor for GLP-1: Table 8
T3 construct: expressed in transfected cells; host or cells: HEK293
T3 sequence (P43220 24-463, species assumed): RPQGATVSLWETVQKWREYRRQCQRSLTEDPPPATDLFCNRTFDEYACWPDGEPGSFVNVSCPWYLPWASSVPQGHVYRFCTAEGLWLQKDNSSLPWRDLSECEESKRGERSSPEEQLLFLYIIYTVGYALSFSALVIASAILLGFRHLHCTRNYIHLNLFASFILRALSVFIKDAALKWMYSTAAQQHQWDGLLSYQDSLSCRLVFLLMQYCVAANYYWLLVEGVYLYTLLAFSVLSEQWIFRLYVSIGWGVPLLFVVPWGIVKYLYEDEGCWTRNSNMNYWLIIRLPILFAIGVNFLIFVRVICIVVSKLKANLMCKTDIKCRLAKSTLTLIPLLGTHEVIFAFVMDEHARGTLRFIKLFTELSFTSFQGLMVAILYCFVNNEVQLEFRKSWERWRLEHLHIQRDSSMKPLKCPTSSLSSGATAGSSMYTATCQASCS

[3] = Table 4, relative to the native hormone
[4] = relative to the standard (Std.) EC50 of the same run

mt-384: glucagon analog: Tyr1, AIB2, Lys10(γGlu-γGlu-C16), Ile12, Lys16, Gln17, Ala18, AIB20, Glu21, Asn24, Leu27, Ala28, Gly29, GPSSGAPPPS, amide (Y[Aib]QGTFTSDK([γGlu-γGlu-C16])SIYLDKQAA[Aib]EFVNWLLAGGPSSGAPPPS-NH2)
total change in body weight (weight loss, decrease) [1]: ~21%

mt-170: lactam-containing GLP-1/GIP/glucagon triagonist peptide, C-terminal amide (Y[Aib]QGTFTSDYSIYLDEQAAKEFVNWLLAGGPSSGAPPPSC(PEG 40 kDa)-NH2; lactam 16-20)
receptor activity profile (glucagon / GLP-1 / GIP agonism) [2]: exemplary GLP-1/GIP/glucagon triagonist peptides | reduction of body weight ([1]; Example 22, subcutaneous QW, 70 or 210 nmol/kg/week): a little more effective at reducing body weight in the mice as Chimera 2 AIB2, but not as effective as Chimera 2 AIB2 lactam

CCCCCCCCCCCCCCCC(=O)N[C@@H](CCC(=O)N[C@@H](CCC(=O)NCCCC[C@H](NC(=O)[C@H](CO)NC(=O)[C@@H]1CCCN1C(=O)[C@@H]1CCCN1C(=O)[C@@H]1CCCN1C(=O)[C@H](C)NC(=O)CNC(=O)[C@H](CO)NC(=O)[C@H](CO)NC(=O)[C@@H]1CCCN1C(=O)CNC(=O)CNC(=O)[C@H](C)NC(=O)[C@H](CC(C)C)NC(=O)[C@H](CC(C)C)NC(=O)[C@H](Cc1c[nH]c2ccccc12)NC(=O)[C@H](CC(N)=O)NC(=O)[C@@H](NC(=O)[C@H](Cc1ccccc1)NC(=O)[C@H](CCC(=O)O)NC(=O)C(C)(C)NC(=O)[C@H](C)NC(=O)[C@H](C)NC(=O)[C@H](CCC(N)=O)NC(=O)[C@H](CCCCN)NC(=O)[C@H](CC(=O)O)NC(=O)[C@H](CC(C)C)NC(=O)[C@H](Cc1ccc(O)cc1)NC(=O)[C@@H](NC(=O)[C@H](CO)NC(=O)[C@H](Cc1ccc(O)cc1)NC(=O)[C@H](CC(=O)O)NC(=O)[C@H](CO)NC(=O)[C@@H](NC(=O)[C@H](Cc1ccccc1)NC(=O)[C@@H](NC(=O)CNC(=O)[C@H](CCC(=O)O)NC(=O)C(C)(C)NC(=O)[C@@H](N)Cc1ccc(O)cc1)[C@@H](C)O)[C@@H](C)O)[C@@H](C)CC)C(C)C)C(N)=O)C(=O)O)C(=O)O [mt-367]
EC50 (GIP receptor; GIP Receptor EC50, nM, Table 4): 0.0014 nM | GIP Receptor relative activity (GIP receptor; [3]): 202.82% | % Relative activity at the Receptor for GIP (GIP receptor): 202.82% | Glucagon Receptor relative activity (glucagon receptor; [3]): 4.11% | % Relative activity at the Receptor for Glucagon (glucagon receptor): 4.11% | total change in body weight (weight loss, decrease) [1]: ~18% | GLP-1 Receptor relative activity (GLP-1 receptor; [3]): 405.94% | % Relative activity at the Receptor for GLP-1 (GLP-1 receptor): 405.94%

mt-385: same structure as Peptide mt-384 except that Thr at position 7 was changed to an Ile (Y[Aib]QGTFISDK([γGlu-γGlu-C16])SIYLDKQAA[Aib]EFVNWLLAGGPSSGAPPPS-NH2)
total change in body weight (weight loss, decrease) [1]: ~15%

CCCCCCCCCCCCCCCC(=O)N[C@@H](CCC(=O)N[C@@H](CCC(=O)NCCCC[C@H](NC(=O)[C@H](CC(=O)O)NC(=O)[C@H](CO)NC(=O)[C@@H](NC(=O)[C@H](Cc1ccccc1)NC(=O)[C@@H](NC(=O)CNC(=O)[C@H](CCC(=O)O)NC(=O)C(C)(C)NC(=O)[C@@H](N)Cc1ccc(O)cc1)[C@@H](C)O)[C@@H](C)O)C(=O)N[C@@H](CO)C(=O)N[C@H](C(=O)N[C@@H](Cc1ccc(O)cc1)C(=O)N[C@@H](CC(C)C)C(=O)N[C@@H](CC(=O)O)C(=O)N[C@@H](CCCCN)C(=O)N[C@@H](CCC(N)=O)C(=O)N[C@@H](C)C(=O)N[C@@H](C)C(=O)NC(C)(C)C(=O)N[C@@H](CCC(=O)O)C(=O)N[C@@H](Cc1ccccc1)C(=O)N[C@H](C(=O)N[C@@H](CC(N)=O)C(=O)N[C@@H](Cc1c[nH]c2ccccc12)C(=O)N[C@@H](CC(C)C)C(=O)N[C@@H](CC(C)C)C(=O)N[C@@H](C)C(=O)NCC(=O)NCC(=O)N1CCC[C@H]1C(=O)N[C@@H](CO)C(=O)N[C@@H](CO)C(=O)NCC(=O)N[C@@H](C)C(=O)N1CCC[C@H]1C(=O)N1CCC[C@H]1C(=O)N1CCC[C@H]1C(=O)N[C@@H](CO)C(=O)N[C@@H](CCCCN)C(N)=O)C(C)C)[C@@H](C)CC)C(=O)O)C(=O)O [mt-369] (H-Y[Aib]EGTFTSDK([γGlu-γGlu-Palmitoyl])SIYLDKQAA[Aib]EFVNWLLAGGPSSGAPPPSK-NH2; N-terminus assumed)
EC50 (GIP receptor; GIP Receptor EC50, nM, Table 4): 0.0014 nM | GIP Receptor relative activity (GIP receptor; [3]): 204.26% | % Relative activity at the Receptor for GIP (GIP receptor): 204.26% | Glucagon Receptor relative activity (glucagon receptor; [3]): 1.54% | % Relative activity at the Receptor for Glucagon (glucagon receptor): 1.54% | total change in body weight (weight loss, decrease) [1]: ~25% | GLP-1 Receptor relative activity (GLP-1 receptor; [3]): 385.05% | % Relative activity at the Receptor for GLP-1 (GLP-1 receptor): 385.05%

CCCCCCCCCCCCCCCC(=O)N[C@@H](CCC(=O)N[C@@H](CCC(=O)NCCCC[C@H](NC(=O)[C@H](CO)NC(=O)[C@@H]1CCCN1C(=O)[C@@H]1CCCN1C(=O)[C@@H]1CCCN1C(=O)[C@H](C)NC(=O)CNC(=O)[C@H](CO)NC(=O)[C@H](CO)NC(=O)[C@@H]1CCCN1C(=O)CNC(=O)CNC(=O)[C@H](C)NC(=O)[C@H](CC(C)C)NC(=O)[C@H](CC(C)C)NC(=O)[C@H](Cc1c[nH]c2ccccc12)NC(=O)[C@H](CC(N)=O)NC(=O)[C@@H](NC(=O)[C@H](Cc1ccccc1)NC(=O)[C@H](CCC(=O)O)NC(=O)C(C)(C)NC(=O)[C@H](C)NC(=O)[C@H](C)NC(=O)[C@H](CCC(N)=O)NC(=O)[C@H](CCCCN)NC(=O)[C@H](CC(=O)O)NC(=O)[C@H](CC(C)C)NC(=O)[C@H](Cc1ccc(O)cc1)NC(=O)[C@@H](NC(=O)[C@H](CO)NC(=O)[C@H](Cc1ccc(O)cc1)NC(=O)[C@H](CC(=O)O)NC(=O)[C@H](CO)NC(=O)[C@@H](NC(=O)[C@H](Cc1ccccc1)NC(=O)[C@@H](NC(=O)CNC(=O)[C@H](CCC(N)=O)NC(=O)C(C)(C)NC(=O)[C@@H](N)Cc1ccc(O)cc1)[C@@H](C)O)[C@@H](C)O)[C@@H](C)CC)C(C)C)C(N)=O)C(=O)O)C(=O)O [mt-368] (H-Y[Aib]QGTFTSDYSIYLDKQAA[Aib]EFVNWLLAGGPSSGAPPPSK([γGlu-γGlu-Palmitoyl])-NH2; N-terminus assumed)
GIP Receptor relative activity (GIP receptor; [3]): 296.07% | % Relative activity at the Receptor for GIP (GIP receptor): 296.07% | EC50 (glucagon receptor; Glucagon Receptor EC50, nM, Table 4): 0.0069 nM | Glucagon Receptor relative activity (glucagon receptor; [3]): 491.82% | % Relative activity at the Receptor for Glucagon (glucagon receptor): 491.82% | total change in body weight (weight loss, decrease) [1]: ~22% | GLP-1 Receptor relative activity (GLP-1 receptor; [3]): 418.93% | % Relative activity at the Receptor for GLP-1 (GLP-1 receptor): 418.93%

CC[C@H](C)[C@H](NC(=O)[C@H](CO)NC(=O)[C@H](Cc1ccc(O)cc1)NC(=O)[C@H](CC(=O)O)NC(=O)[C@H](CO)NC(=O)[C@@H](NC(=O)[C@H](Cc1ccccc1)NC(=O)[C@@H](NC(=O)CNC(=O)[C@H](CCC(N)=O)NC(=O)C(C)(C)NC(=O)[C@@H](N)Cc1ccc(O)cc1)[C@@H](C)O)[C@@H](C)O)C(=O)N[C@@H](Cc1ccc(O)cc1)C(=O)N[C@@H](CC(C)C)C(=O)N[C@@H](CC(=O)O)C(=O)N[C@@H](CCCCN)C(=O)N[C@@H](CCC(N)=O)C(=O)N[C@@H](C)C(=O)N[C@@H](C)C(=O)NC(C)(C)C(=O)N[C@@H](CCC(=O)O)C(=O)N[C@@H](Cc1ccccc1)C(=O)N[C@H](C(=O)N[C@@H](CS)C(=O)N[C@@H](Cc1c[nH]c2ccccc12)C(=O)N[C@@H](CC(C)C)C(=O)N[C@@H](CC(C)C)C(=O)N[C@@H](C)C(=O)NCC(N)=O)C(C)C [mt-257] (H-Y[Aib]QGTFTSDYSIYLDKQAA[Aib]EFVCWLLAG-NH2; N-terminus assumed)
EC50 (GIP receptor; GIP Receptor EC50, cAMP luciferase reporter assay as in Example 16): 0.0232 nM | GIP Receptor relative activity (GIP receptor; [4]): 41.38% | Glucagon Receptor relative activity (glucagon receptor; [4]): 32.53% | receptor activity profile (glucagon / GLP-1 / GIP agonism) [2]: exhibited activity at the GIP, GLP-1, and glucagon receptors | EC50 (GLP-1 receptor; GLP-1 Receptor EC50, cAMP luciferase reporter assay as in Example 16): 30.3 pM | GLP-1 Receptor relative activity (GLP-1 receptor; [4]): 39.27%
